These results are taken from ChEMBL document CHEMBL1201862, “PubChem BioAssay data set” (2004).

Among the test systems are A549; Malme-3M; SN12C; NCI-H460; SF-539; SNB-19; HOP-62; OVCAR-8; MOLT-4; UO-31; MDA-MB-435; IGROV-1; U-251; A498; HCT-15; HT-29; PC-3; UACC-257; TK-10; NCI-H226.
Holding throughout (experiment): growth of human tumour cells (NCI), 48 h

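All cell lines were grown in 96-well plates and treated with compound for 48 hours. Here, GI50 denotes the concentration required for 50% inhibition of growth.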 Calls of active or inactive are those of the source. Rule as the data show it: active = GI50 up to about 1.1 µM and inactive = higher. Where a SMILES comes first, the peptide text is derived from it. [ ]: non-standard residue; d: D form. The star is where a group is joined. Cbz = O=C(OCc1ccccc1)*; Aib = CC(C)(N)C(=O)O A value given as a limit tells only on which side of the number the result lay.

As to `O=C(CC(=O)c1ccncc1)c1ccccc1`, the GI50 in the experiment on A549 was > 100 µM (inactive); with Malme-3M, 40.3 µM (inactive); in the experiment on SN12C it was 42.2 µM (inactive); in the experiment on NCI-H460, 32.9 µM (inactive); with SF-539, 63.5 µM (inactive); in the experiment on SNB-19, > 100 µM (inactive). Besides, the GI50 was 71.8 µM (inactive) with HOP-62; 59.6 µM (inactive) in the experiment on OVCAR-8; 38.1 µM (inactive) in the experiment on MOLT-4; > 74.5 µM (inactive) with UO-31; > 100 µM (inactive) in the experiment with MDA-MB-435; > 100 µM (inactive) in the experiment with IGROV-1. In addition, the GI50 in the experiment on U-251 was 49.7 µM (inactive); in the experiment on A498, > 100 µM (inactive); in the experiment with HCT-15 it was 35.9 µM; in the experiment on HT-29, > 77.8 µM (inactive); in the experiment with PC-3, > 77.8 µM (inactive); in the experiment on UACC-257 it was > 85.7 µM (inactive). Further, the figures for the GI50 in the experiment on TK-10 and in the experiment with NCI-H226 were > 94.8 µM (inactive) and > 100 µM (inactive), respectively.
For the molecule `CC(C)(NC(=O)C(C)(C)NC(=O)OCc1ccccc1)C(=O)O` (Cbz-[Aib]-[Aib]-OH), the GI50 with A549, in the experiment on Malme-3M, in the experiment on SN12C, with NCI-H460, in the experiment with SF-539 and with SNB-19 was > 100 µM (inactive) in each case. Also, the GI50 in the experiment on HOP-62, with OVCAR-8, with MOLT-4, in the experiment on UO-31, with MDA-MB-435 and with IGROV-1 was > 100 µM (inactive) each time. Also, the GI50 was > 100 µM (inactive) with U-251; > 100 µM (inactive) in the experiment on A498; > 100 µM in the experiment on HCT-15; > 100 µM (inactive) in the experiment on HT-29; > 100 µM (inactive) in the experiment on PC-3; > 100 µM (inactive) in the experiment on UACC-257. In addition, the GI50 with TK-10 and with NCI-H226 was > 100 µM (inactive) throughout.
For the molecule `COc1c2c(c(CC=C(C)C)c3oc(=O)c(-c4ccc(O)cc4)c(O)c13)OC(C)(C)C=C2` [LONCHOCARPIC ACID], the GI50 with A549 was 19.1 µM (inactive); with Malme-3M, 30.8 µM (inactive); in the experiment on SN12C, 27.5 µM (inactive); with NCI-H460, 24 µM (inactive); with SF-539 it was 15.1 µM (inactive); in the experiment on SNB-19, 29.5 µM (inactive). Besides, the GI50 in the experiment with HOP-62 is 23.4 µM (inactive); with OVCAR-8, 29 µM (inactive); with MOLT-4 it was 24.9 µM (inactive); with UO-31, 27.8 µM (inactive); in the experiment with MDA-MB-435, 15.2 µM (inactive); in the experiment on IGROV-1, 18.4 µM (inactive). Further, the GI50 in the experiment on U-251 is 8.26 µM (inactive); in the experiment with A498, 31.8 µM (inactive); with HCT-15, 11.9 µM; with HT-29, 30 µM (inactive); in the experiment on PC-3, 31.5 µM (inactive); with UACC-257, 27.7 µM (inactive). Also, the GI50 is 32.4 µM (inactive) in the experiment on TK-10 and 21.5 µM (inactive) in the experiment with NCI-H226.
